The source of these data is patent US11111247B2, “Pyrazolopyrimidine compounds and uses thereof” (Incyte Corporation, priority 2018, dated 2021).

Where two headings read alike, the source gives them in different places.

One assay has as its target FGFR2 (P) (Homo sapiens (Human), UniProt P21802). The assay can be described thus: FGFR Enzymatic Assay, FGFR2 phosphorylated. Particulars: phosphorylated enzyme, ATP near or below Km.
A further assay has as its target ALK2 (aa 147-end) (Homo sapiens (Human), UniProt Q04771). The assay can be described thus: ALK2 HTRF Assay. It counts as biochemical. The procedure:
The enzymatic assays were conducted in white 384-well polystyrene plates in a final volume of 8 μL. The inhibitors were serially diluted in DMSO and added to the plate wells prior to addition of the other reaction components. The assays were carried out at 25° C. in the assay buffer (50 mM HEPES, pH 7.1, 10% Glycerol, 0.01% Brij50, 10 mM MgCl2, 1 mM EGTA, 5 mM DTT, and 0.01% BSA), containing 50 nM LANCE Ultra ULight™-DNA Topoisomerase 2-alpha peptide (Perkin Elmer TRF0130), and 3 uM, 100 uM or 1 mM ATP (as specified). […] The reaction was read on a PHERAstar FS plate reader (BMG Labtech). IC50 determination was performed by fitting percent control activity versus the log of the inhibitor concentration using the IDBS XLFit and GraphPad Prism 5.0 software.

The next assay has as its target FGFR3 (UP) (Homo sapiens (Human), UniProt P22607). Kind of assay: FGFR Enzymatic Assay, FGFR3 un-phosphorylated.
The target of a further assay is ALK2 (Homo sapiens (Human), UniProt Q04771). Kind of assay: ALK2 Cellular Assay (phospho SMAD1 HTRF, BMP-7 stimulated HeLa cells). Format: cell-based. Particulars: HeLa cells, 200 ng/ml BMP-7, Phospho SMAD1 (S463/S465) HTRF; read-out: ALK2 Cellular Assay PSMAD. The procedure: HeLa cells were cultured in MEM media with 10% FBS. […] HeLa cells were plated in 96 well flat bottomed plate at 50,000 cells per well and incubated overnight. Next day, media was removed and 50 μL of fresh complete media was added. 5 μL compound was added to cells (3 μM final concentration at highest) and incubated for 60 min at 37° C. 200 ng/ml BMP-7 was added and incubated for 30 min at 37° C. After incubation, the media was removed, washed 2×PBS, and proceeded with HTRF kit according to Cisbio HTRF kit instructions for measuring the Phospho SMAD1 (S463/S465). Finally, both the donor and acceptor were added into 384 well plates and incubated at room temperature overnight and the HTRF signal was measured via Pherastar the next day.
Background: TR-FRET usually uses a lanthanide donor and a delayed reading to cut background.

A further assay addresses FGFR1 (UP) (Homo sapiens (Human), UniProt P11362). Kind of assay: FGFR Enzymatic Assay, FGFR1 un-phosphorylated.
The mark [1] stands for this setting: read-out: ALK2 3 μM IC50, 3 uM ATP.
[2] abbreviates: read-out: ALK2 100 μM IC50, 100 uM ATP.
Setting [3] is: read-out: ALK2 1 mM IC50, 1 mM ATP.
The mark [4] stands for this setting: read-out: FGFR3 (UP) IC50, un-phosphorylated enzyme, ATP near or below Km.
Setting [5] is: read-out: FGFR1 (UP) IC50, un-phosphorylated enzyme, ATP near or below Km.

Sequence of ALK2 (Q04771 21-509): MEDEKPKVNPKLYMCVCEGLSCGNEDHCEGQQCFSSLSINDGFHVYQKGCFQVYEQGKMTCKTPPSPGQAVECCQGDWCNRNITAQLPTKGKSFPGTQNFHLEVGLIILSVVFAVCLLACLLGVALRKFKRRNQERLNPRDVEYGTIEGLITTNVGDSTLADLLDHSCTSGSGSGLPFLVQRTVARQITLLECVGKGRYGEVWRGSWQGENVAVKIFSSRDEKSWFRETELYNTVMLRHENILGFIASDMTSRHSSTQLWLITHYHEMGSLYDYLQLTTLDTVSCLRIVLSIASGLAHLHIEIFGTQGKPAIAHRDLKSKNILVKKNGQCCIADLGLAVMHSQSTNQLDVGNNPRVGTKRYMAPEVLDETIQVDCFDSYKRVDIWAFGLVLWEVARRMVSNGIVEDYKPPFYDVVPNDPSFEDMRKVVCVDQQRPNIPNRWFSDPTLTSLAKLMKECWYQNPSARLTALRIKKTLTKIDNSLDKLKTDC
Sequence of FGFR1 (UP) (P11362 22-822): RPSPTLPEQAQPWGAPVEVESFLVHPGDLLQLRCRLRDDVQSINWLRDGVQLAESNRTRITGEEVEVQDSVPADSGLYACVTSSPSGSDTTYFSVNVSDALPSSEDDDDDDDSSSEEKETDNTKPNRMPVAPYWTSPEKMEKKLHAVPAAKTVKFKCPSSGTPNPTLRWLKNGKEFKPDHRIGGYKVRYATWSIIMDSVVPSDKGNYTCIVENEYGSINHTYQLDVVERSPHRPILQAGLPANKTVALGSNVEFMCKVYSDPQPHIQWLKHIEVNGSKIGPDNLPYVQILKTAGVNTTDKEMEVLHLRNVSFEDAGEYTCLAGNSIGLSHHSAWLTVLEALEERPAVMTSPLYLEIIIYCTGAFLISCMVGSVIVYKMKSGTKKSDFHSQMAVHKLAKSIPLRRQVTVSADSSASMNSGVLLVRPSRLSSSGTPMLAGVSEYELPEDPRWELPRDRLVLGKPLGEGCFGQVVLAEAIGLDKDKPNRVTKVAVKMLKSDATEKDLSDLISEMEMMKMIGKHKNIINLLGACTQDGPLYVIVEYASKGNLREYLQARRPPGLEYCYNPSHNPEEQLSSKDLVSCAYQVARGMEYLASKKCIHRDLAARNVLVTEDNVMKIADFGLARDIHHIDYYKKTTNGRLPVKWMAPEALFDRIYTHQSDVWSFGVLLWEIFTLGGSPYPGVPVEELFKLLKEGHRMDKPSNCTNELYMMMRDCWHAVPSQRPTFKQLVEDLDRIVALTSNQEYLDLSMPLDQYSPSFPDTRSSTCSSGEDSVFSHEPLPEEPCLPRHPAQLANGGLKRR
Sequence of FGFR3 (UP) (P22607 23-806): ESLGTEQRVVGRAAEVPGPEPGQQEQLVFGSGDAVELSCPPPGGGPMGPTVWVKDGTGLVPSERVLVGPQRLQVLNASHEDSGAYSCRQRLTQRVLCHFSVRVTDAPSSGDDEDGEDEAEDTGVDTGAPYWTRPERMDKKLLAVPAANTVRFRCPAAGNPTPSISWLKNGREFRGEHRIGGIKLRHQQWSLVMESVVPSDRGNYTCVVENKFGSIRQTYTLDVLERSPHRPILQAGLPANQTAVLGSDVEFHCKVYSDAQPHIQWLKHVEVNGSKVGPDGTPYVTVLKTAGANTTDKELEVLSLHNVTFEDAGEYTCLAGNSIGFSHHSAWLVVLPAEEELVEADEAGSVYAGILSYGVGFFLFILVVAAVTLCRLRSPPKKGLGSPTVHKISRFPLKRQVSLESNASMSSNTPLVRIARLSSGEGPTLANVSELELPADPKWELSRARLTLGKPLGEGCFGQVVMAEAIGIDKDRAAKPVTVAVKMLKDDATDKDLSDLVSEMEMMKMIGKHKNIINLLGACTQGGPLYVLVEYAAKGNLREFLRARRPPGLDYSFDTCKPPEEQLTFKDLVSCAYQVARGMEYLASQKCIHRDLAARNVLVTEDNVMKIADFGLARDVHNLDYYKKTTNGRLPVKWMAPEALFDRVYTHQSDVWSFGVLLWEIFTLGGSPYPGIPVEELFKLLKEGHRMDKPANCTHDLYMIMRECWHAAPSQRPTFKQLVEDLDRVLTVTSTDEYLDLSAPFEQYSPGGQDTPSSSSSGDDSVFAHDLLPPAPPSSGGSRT
Sequence of FGFR2 (P) (P21802 22-821): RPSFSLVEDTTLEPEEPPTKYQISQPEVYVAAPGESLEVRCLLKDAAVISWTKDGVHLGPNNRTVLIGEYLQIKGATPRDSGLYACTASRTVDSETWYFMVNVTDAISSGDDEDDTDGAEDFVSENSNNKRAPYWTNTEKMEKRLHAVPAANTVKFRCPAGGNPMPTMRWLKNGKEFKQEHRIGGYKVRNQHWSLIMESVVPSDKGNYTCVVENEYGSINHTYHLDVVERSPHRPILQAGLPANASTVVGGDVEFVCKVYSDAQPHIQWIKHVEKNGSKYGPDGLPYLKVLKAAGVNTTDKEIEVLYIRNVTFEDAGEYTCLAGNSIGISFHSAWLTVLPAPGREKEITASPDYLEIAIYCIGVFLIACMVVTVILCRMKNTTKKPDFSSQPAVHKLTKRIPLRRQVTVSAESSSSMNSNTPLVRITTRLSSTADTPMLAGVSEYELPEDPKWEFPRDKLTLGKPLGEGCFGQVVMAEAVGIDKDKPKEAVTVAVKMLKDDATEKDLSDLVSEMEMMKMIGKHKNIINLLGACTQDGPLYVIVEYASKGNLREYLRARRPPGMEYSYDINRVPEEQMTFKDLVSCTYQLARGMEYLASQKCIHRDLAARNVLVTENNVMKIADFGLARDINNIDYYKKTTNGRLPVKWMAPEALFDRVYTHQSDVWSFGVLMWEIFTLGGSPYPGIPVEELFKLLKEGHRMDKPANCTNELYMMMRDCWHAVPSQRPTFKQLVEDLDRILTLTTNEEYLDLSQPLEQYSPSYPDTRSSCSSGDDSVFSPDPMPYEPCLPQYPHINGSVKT
Sequence of ALK2 (aa 147-end) (Q04771 147-509): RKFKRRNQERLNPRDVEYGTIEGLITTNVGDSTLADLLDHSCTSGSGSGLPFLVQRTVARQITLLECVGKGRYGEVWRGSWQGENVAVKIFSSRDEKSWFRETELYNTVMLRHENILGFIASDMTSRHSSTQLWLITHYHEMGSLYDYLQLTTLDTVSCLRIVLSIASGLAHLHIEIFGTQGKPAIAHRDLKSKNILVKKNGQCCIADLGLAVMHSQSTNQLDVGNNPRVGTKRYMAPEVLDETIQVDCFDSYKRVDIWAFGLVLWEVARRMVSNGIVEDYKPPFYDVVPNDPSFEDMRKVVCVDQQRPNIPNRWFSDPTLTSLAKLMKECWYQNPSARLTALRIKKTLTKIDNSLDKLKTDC
Method for FGFR2 (P): The inhibitor potency of the exemplified compounds was determined in an enzyme discontinuous assay that measures peptide phosphorylation using FRET measurements to detect product formation. Inhibitors were serially diluted in DMSO and a volume of 0.2 μL was transferred to the wells of a 384-well plate. For the isoforms of FGFR (−1, −2, −3 wild-type and mutant isoforms, −4) including phosphorylated (P) and un-phosphorylated (UP) proteins, a 5 μL/well volume of enzyme diluted in assay buffer (50 mM HEPES, 10 mM MgCl2, 1 mM EGTA, 0.01% Tween-20, 5 mM DTT, pH 7.5) was added to the plate and pre-incubated with inhibitor for 5 to 15 minutes at ambient temperature. Appropriate controls (enzyme blank and enzyme with no inhibitor) were included on the plate. The reaction was initiated by the addition of a 5 μL/well volume containing both biotinylated [sequence] […] The plate was allowed to equilibrate for −10 minutes at ambient temperature before scanning on a PheraStar plate reader (BMG Labtech) instrument.
Either GraphPad prism or XLfit was used to analyze the data. The IC50 values were derived by fitting the data to a four parameter logistic equation producing a sigmoidal dose-response curve with a variable Hill coefficient. Prism equation: Y=Bottom+(Top−Bottom)/(1+10^((LogIC50−X)*Hill slope)); XLfit equation: Y=(A+((B−A)/(1+((X/C)^D)))) where X is the logarithm of inhibitor concentration and Y is the response.

The molecule `CN1CC2CCC(C1=O)N2c1ncc2[nH]nc(-c3cnn(C4CCC4)c3)c2n1` (single isomer, unassigned) [Example 63, 8-(3-(1-Cyclobutyl-1H-pyrazol-4-yl)-1H-pyrazolo[4,3-d]pyrimidin-5-yl)-3-methyl-3,8-diazabicyclo[3.2.1]octan-2-one] showed an IC50 at FGFR2 (P) (FGFR2 (P) IC50 (nM)) of 500 to 2000 nM.
Consider `C[C@@H]1CN(c2ccc(-c3n[nH]c4cnc(N5[C@H](C)CCC[C@@H]5C)nc34)cn2)CCN1` [Example 1, 5-((2R,6S)-2,6-Dimethylpiperidin-1-yl)-3-(6-((R)-3-methylpiperazin-1-yl)pyridin-3-yl)-1H-pyrazolo[4,3-d]pyrimidine], for which the IC50 at ALK2 (aa 147-end) (setting [1]) is less than 100 nM; at ALK2 (aa 147-end) (setting [2]) it was less than 100 nM; on ALK2 (aa 147-end) (setting [3]), less than 100 nM; at FGFR3 (UP) (setting [4]), less than 100 nM; on FGFR2 (P) (read-out: FGFR2 (P) IC50), less than 100 nM; at ALK2, 100 to 500 nM. Moreover, the IC50 at FGFR1 (UP) was 100 to 500 nM.
With `C[C@@H]1CN(c2ccc(-c3n[nH]c4cnc(N5[C@H](C)COC[C@@H]5C)nc34)cn2)CCN1` [Example 2, (3R,5S)-3,5-Dimethyl-4-(3-(6-((R)-3-methylpiperazin-1-yl)pyridin-3-yl)-1H-pyrazolo[4,3-d]pyrimidin-5-yl)morpholine], the IC50 at ALK2 (aa 147-end) (ALK2 100 μM IC50, 100 uM ATP) was 100 to 500 nM; at ALK2 (aa 147-end) (ALK2 1 mM IC50, 1 mM ATP), 500 to 2000 nM; on ALK2 (aa 147-end) (setting [1]) it was less than 100 nM; on FGFR3 (UP) (setting [4]), less than 100 nM; against FGFR2 (P) (FGFR2 (P) IC50 (nM)) it was 100 to 500 nM; on ALK2, 100 to 500 nM. The same molecule registered an IC50 at FGFR1 (UP) of 100 to 500 nM.
Regarding `C[C@@H]1CN(c2ccc(-c3n[nH]c4cnc(N5[C@@H]6CCC[C@H]5[C@@H](O)C6)nc34)cn2)CCN1` [Example 4, (1R,5S,6S)-8-(3-(6-((R)-3-Methylpiperazin-1-yl)pyridin-3-yl)-1H-pyrazolo[4,3-d]pyrimidin-5-yl)-8-azabicyclo[3.2.1]octan-6-ol], the IC50 on ALK2 (aa 147-end) (setting [1]) was less than 100 nM; on ALK2 (aa 147-end) (setting [2]), less than 100 nM; at ALK2 (aa 147-end) (setting [3]), less than 100 nM; on FGFR3 (UP) (setting [4]), less than 100 nM; at FGFR2 (P) (read-out: FGFR2 (P) IC50), less than 100 nM; at ALK2 it was 100 to 500 nM. The same molecule gave an IC50 on FGFR1 (UP) of 100 to 500 nM.
For `C[C@@H]1CN(c2ccc(-c3n[nH]c4cnc(N5[C@H](C)CN(C(=O)N(C)C)C[C@@H]5C)nc34)cn2)CCN1` [Example 8, (3R,5S)—N,N,3,5-tetramethyl-4-(3-(6-((R)-3-methylpiperazin-1-yl)pyridin-3-yl)-1H-pyrazolo[4,3-d]pyrimidin-5-yl)piperazine-1-carboxamide], the IC50 on ALK2 (aa 147-end) (setting [1]) is less than 100 nM; at ALK2 (aa 147-end) (setting [2]), less than 100 nM; on ALK2 (aa 147-end) (setting [3]), less than 100 nM; at ALK2, 100 to 500 nM.
As for `COC(=O)N1C[C@@H](C)N(c2ncc3[nH]nc(-c4ccc(N5CCN(C)CC5)cc4)c3n2)[C@@H](C)C1` [Example 22, Methyl (3R,5S)-3,5-dimethyl-4-(3-(4-(4-methylpiperazin-1-yl)phenyl)-1H-pyrazolo[4,3-d]pyrimidin-5-yl)piperazine-1-carboxylate], the IC50 on ALK2 (aa 147-end) (setting [1]), at ALK2 (aa 147-end) (setting [2]), at ALK2 (aa 147-end) (setting [3]) and on ALK2 was less than 100 nM in each case.
`CCN1CCN(c2ccc(-c3n[nH]c4cnc(N5[C@H](C)CN(C(=O)OC)C[C@@H]5C)nc34)cc2C)CC1` [Example 25, Methyl (3R,5S)-4-(3-(4-(4-ethylpiperazin-1-yl)-3-methylphenyl)-1H-pyrazolo[4,3-d]pyrimidin-5-yl)-3,5-dimethylpiperazine-1-carboxylate]: the IC50 on ALK2 (aa 147-end) (setting [1]) was less than 100 nM; on ALK2 (aa 147-end) (setting [2]), less than 100 nM; on ALK2, 100 to 500 nM.
As for `COC(=O)N1C[C@@H](C)N(c2ncc3[nH]nc(-c4ccc(C5CCN(C)C5)cc4)c3n2)[C@@H](C)C1` (stereo partly drawn) [Example 27, Methyl (3R,5S)-3,5-dimethyl-4-(3-(4-(1-methylpyrrolidin-3-yl)phenyl)-1H-pyrazolo[4,3-d]pyrimidin-5-yl)piperazine-1-carboxylate], the IC50 against ALK2 (aa 147-end) (ALK2 1 mM IC50, 1 mM ATP) is 100 to 500 nM; at ALK2 (aa 147-end) (setting [1]), less than 100 nM; at ALK2, 100 to 500 nM.
As to `COC(=O)N1C[C@@H](C)N(c2ncc3[nH]nc(-c4ccc(N5CCN6C[C@@H](O)C[C@@H]6C5)cc4)c3n2)[C@@H](C)C1` [Example 35, Methyl (3R,5S)-4-(3-(4-((7S,8aR)-7-hydroxyhexahydropyrrolo[1,2-a]pyrazin-2(1H)-yl)phenyl)-1H-pyrazolo[4,3-d]pyrimidin-5-yl)-3,5-dimethylpiperazine-1-carboxylate], the IC50 on ALK2 (aa 147-end) (ALK2 1 mM IC50, 1 mM ATP) is 100 to 500 nM; on ALK2 (aa 147-end) (setting [1]) it was less than 100 nM; on ALK2 it was 100 to 500 nM.
For `CN1CCN(c2ncc3[nH]nc(-c4cnn(C)c4)c3n2)CC1=O` [Example 36, 1-Methyl-4-(3-(1-methyl-1H-pyrazol-4-yl)-1H-pyrazolo[4,3-d]pyrimidin-5-yl)piperazin-2-one], the IC50 against ALK2 (aa 147-end) (ALK2 3 μM IC50, 3 uM ATP) lay within 500 to 2000 nM; against ALK2 (aa 147-end) (ALK2 100 μM IC50, 100 uM ATP), 500 to 2000 nM; on FGFR2 (P) (FGFR2 (P) IC50 (nM)) it was 100 to 500 nM.
On to `Cn1cc(-c2n[nH]c3cnc(N4CCN(C5CC5)C(=O)C4)nc23)cn1` [Example 37, 1-Cyclopropyl-4-(3-(1-methyl-1H-pyrazol-4-yl)-1H-pyrazolo[4,3-d]pyrimidin-5-yl)piperazin-2-one], for which the IC50 was 100 to 500 nM against FGFR3 (UP), 500 to 2000 nM against FGFR2 (P) (FGFR2 (P) IC50 (nM)) and greater than 2000 nM at FGFR1 (UP) (setting [5]).
On to `CC1C(=O)N(C)CCN1c1ncc2[nH]nc(-c3cnn(C)c3)c2n1` (stereo not drawn) [Example 38, 1,3-Dimethyl-4-(3-(1-methyl-1H-pyrazol-4-yl)-1H-pyrazolo[4,3-d]pyrimidin-5-yl)piperazin-2-one], for which the IC50 at ALK2 (aa 147-end) (ALK2 3 μM IC50, 3 uM ATP) was 100 to 500 nM; on ALK2 (aa 147-end) (ALK2 100 μM IC50, 100 uM ATP) it was 500 to 2000 nM; on FGFR2 (P) (read-out: FGFR2 (P) IC50), less than 100 nM.
As to `CC1c2nccn2CCN1c1ncc2[nH]nc(-c3cnn(C)c3)c2n1` (stereo not drawn) [Example 43, 3-(1-Methyl-1H-pyrazol-4-yl)-5-(8-methyl-5,6-dihydroimidazo[1,2-a]pyrazin-7(8H)-yl)-1H-pyrazolo[4,3-d]pyrimidine], the values for the IC50 against FGFR3 (UP), against FGFR2 (P) (FGFR2 (P) IC50 (nM)) and against FGFR1 (UP) were 100 to 500 nM, 100 to 500 nM and 500 to 2000 nM, respectively.
Consider `COCCN1CCN(c2ncc3[nH]nc(-c4cnn(C)c4)c3n2)C(C)C1=O` (stereo not drawn) [Example 48, 1-(2-Methoxyethyl)-3-methyl-4-(3-(1-methyl-1H-pyrazol-4-yl)-1H-pyrazolo[4,3-d]pyrimidin-5-yl)piperazin-2-one], for which the values for the IC50 on FGFR3 (UP), against FGFR2 (P) (FGFR2 (P) IC50 (nM)) and at FGFR1 (UP) (setting [5]) were 100 to 500 nM, 500 to 2000 nM and greater than 2000 nM, respectively.
Take `COCCn1cc(-c2n[nH]c3cnc(N4C5CCC4C(=O)N(C)C5)nc23)cn1` (stereo not drawn) [Example 53, 8-(3-(1-(2-Methoxyethyl)-1H-pyrazol-4-yl)-1H-pyrazolo[4,3-d]pyrimidin-5-yl)-3-methyl-3,8-diazabicyclo[3.2.1]octan-2-one]: on FGFR2 (P) (read-out: FGFR2 (P) IC50), the IC50 is less than 100 nM.
Take `CN1CC2CCC(C1=O)N2c1ncc2[nH]nc(-c3cnn(C4CCOCC4)c3)c2n1` (stereo not drawn) [Example 54, 3-Methyl-8-(3-(1-(tetrahydro-2H-pyran-4-yl)-1H-pyrazol-4-yl)-1H-pyrazolo[4,3-d]pyrimidin-5-yl)-3,8-diazabicyclo[3.2.1]octan-2-one]: the IC50 at FGFR2 (P) (read-out: FGFR2 (P) IC50) is less than 100 nM.
Turning to `CN1CC2CCC(C1=O)N2c1ncc2[nH]nc(-c3cnn([C@H]4CC[C@H](O)CC4)c3)c2n1` (stereo partly drawn) [Example 55, 8-(3-(1-((1r,4S)-4-Hydroxycyclohexyl)-1H-pyrazol-4-yl)-1H-pyrazolo[4,3-d]pyrimidin-5-yl)-3-methyl-3,8-diazabicyclo[3.2.1]octan-2-one], the IC50 on FGFR2 (P) (read-out: FGFR2 (P) IC50) was less than 100 nM.
Regarding `CN1CC2CCC(C1=O)N2c1ncc2[nH]nc(-c3cnn(CCN4CCOCC4)c3)c2n1` (stereo not drawn) [Example 58, 3-Methyl-8-(3-(1-(2-morpholinoethyl)-1H-pyrazol-4-yl)-1H-pyrazolo[4,3-d]pyrimidin-5-yl)-3,8-diazabicyclo[3.2.1]octan-2-one], the IC50 is 500 to 2000 nM at ALK2 (aa 147-end) (ALK2 3 μM IC50, 3 uM ATP); 500 to 2000 nM at ALK2 (aa 147-end) (ALK2 100 μM IC50, 100 uM ATP); less than 100 nM at FGFR2 (P) (read-out: FGFR2 (P) IC50).
